Reference: patent US20230339970A1, “CASEIN KINASE 1 DELTA MODULATORS” (priority 2020, published 2023)

What was measured:
human CSNK1D = molecular target: T1, human CSNK1D (Homo sapiens, UniProt P48730); experiment: Whole Cell nBRET CSNK1D Binding Assay; conditions: living CHO cells stably expressing human CSNK1D tagged with nanoluciferase; NanoBret tracer 130 nM; 2 hours at 37 C
T1 construct: expressed in transfected cells

[1] = molecular target: T2, human recombinant GST cleaved CSNK1D (Homo sapiens, UniProt P48730); experiment: Purified Enzyme Assay (ADP-Glo CSNK1D Kinase Assay); type: biochemical; conditions: 2 nM CSNK1D; peptide substrate 150 μM; ATP 20 μM; 45 minutes at room temperature
T2 construct: GST (cleaved yes); purchased University of Dundee clone DU 19064
How it was run: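 GST-cleaved human recombinant CSNK1D phosphorylates peptide PLSRTL-pS-VASLPGL with ATP; compounds added in dose-response, 45 min at room temperature. ADP formed measured by ADP-Glo luminescence and converted to percent activity.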

T2 sequence (P48730 whole entry): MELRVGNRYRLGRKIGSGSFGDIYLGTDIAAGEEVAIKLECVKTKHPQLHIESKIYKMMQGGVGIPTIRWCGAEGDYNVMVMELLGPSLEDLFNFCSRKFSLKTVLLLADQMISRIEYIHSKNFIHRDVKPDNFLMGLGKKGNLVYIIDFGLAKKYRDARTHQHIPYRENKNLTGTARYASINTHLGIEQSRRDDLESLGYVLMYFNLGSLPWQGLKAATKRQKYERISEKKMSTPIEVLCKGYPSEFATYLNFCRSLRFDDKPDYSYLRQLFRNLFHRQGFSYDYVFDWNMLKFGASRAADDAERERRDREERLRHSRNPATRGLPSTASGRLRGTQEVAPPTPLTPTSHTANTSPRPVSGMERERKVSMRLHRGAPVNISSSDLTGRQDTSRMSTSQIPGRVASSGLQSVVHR
T1 sequence (P48730 whole entry): as above

| Structure (SMILES) | IC50 (human CSNK1D) [nM] | IC50 [1] [nM] |
| --- | --- | --- |
| Cc1nc2[nH]ncc2c(-c2c(-c3ccc(F)cn3)nn3c2CC[C@@]2(C3)CC2(F)F)c1F (single isomer, unassigned) [Example 331, (*S)-2,2-Difluoro-3′-(5-fluoro-6-methyl-1H-pyrazolo[3,4-b]pyridin-4-yl)-2′-(5-fluoropyridin-2-yl)-4′,5′-dihydro-7′H-spiro[cyclopropane-1,6′-pyrazolo[1,5-a]pyridine]] | 89 | 18 |
| Cc1n[nH]c2nccc(-c3c(-c4ccc(F)cn4)nn4c3CO[C@@](C)(C(F)(F)F)C4)c12 (single isomer, unassigned) [Example 418, (*R)-2-(5-Fluoropyridin-2-yl)-6-methyl-3-(3-methyl-1H-pyrazolo[3,4-b]pyridin-4-yl)-6-(trifluoromethyl)-6,7-dihydro-4H-pyrazolo[5,1-c][1,4]oxazine] | 124 | 16 |
| CC1n2nc(-c3ccc(F)cn3)c(-c3ccnc4[nH]ncc34)c2COC1(C)C (single isomer, unassigned) [Example 174, (*S)-2-(5-Fluoropyridin-2-yl)-6,6,7-trimethyl-3-(1H-pyrazolo[3,4-b]pyridin-4-yl)-6,7-dihydro-4H-pyrazolo[5,1-c][1,4]oxazine] | 114 | 8 |
| C[C@H]1OCc2c(-c3ccnc4[nH]ncc34)c(-c3ccc(F)cn3)nn2[C@H]1C (single isomer, unassigned) [Example 116, (6*R,7*S)-2-(5-Fluoropyridin-2-yl)-6,7-dimethyl-3-(1H-pyrazolo[3,4-b]pyridin-4-yl)-6,7-dihydro-4H-pyrazolo[5,1-c][1,4]oxazine] | 926 | 38 |
| CC(C)[C@@H]1Cn2nc(-c3ccc(F)cn3)c(-c3ccnc4[nH]ncc34)c2CO1 (single isomer, unassigned) [Example 97, (*R)-2-(5-Fluoropyridin-2-yl)-6-isopropyl-3-(1H-pyrazolo[3,4-b]pyridin-4-yl)-6,7-dihydro-4H-pyrazolo[5,1-c][1,4]oxazine] | 5050 | 63 |
| Cc1nc(-c2c(-c3ccc(F)cn3)nn3c2CC[C@H]2[C@@H]3C2(F)F)c2cn[nH]c2n1 (single isomer, unassigned) [Example 361, (5a*S,6a*R)-6,6-Difluoro-2-(5-fluoropyridin-2-yl)-3-(6-methyl-1H-pyrazolo[3,4-d]pyrimidin-4-yl)-5,5a,6,6a-tetrahydro-4H-cyclopropa[e]pyrazolo[1,5-a]pyridine] | 349 | 497 |
| Cc1cc(-c2c(-c3ccc(F)cn3)nn3c2OCCC3)c2cn[nH]c2n1 [Example 187, 2-(5-Fluoropyridin-2-yl)-3-(6-methyl-1H-pyrazolo[3,4-b]pyridin-4-yl)-6,7-dihydro-5H-pyrazolo[5,1-b][1,3]oxazine] | 330 | 8 |
| Cc1cc(-c2c(-c3ccc(F)cn3)nn3c2CNCC3)c2cn[nH]c2n1 [Example 2, 4-[2-(5-Fluoro-2-pyridyl)-4,5,6,7-tetrahydropyrazolo[1,5-a]pyrazin-3-yl]-6-methyl-1H-pyrazolo[3,4-b]pyridine] | 528 | 19 |
| Cc1cc(-c2c(-c3ccc(F)cn3)nn3c2OC(C)CC3C)c2cn[nH]c2n1 (single isomer, unassigned) [Example 207, (5*R,7*S)-2-(5-Fluoro-2-pyridyl)-5,7-dimethyl-3-(6-methyl-H-pyrazolo[3,4-b]pyridin-4-yl)-6,7-dihydro-5H-pyrazolo[5,1-b][1,3]oxazine] | 1770 | 51 |
| Fc1ccc(-c2nn3c(c2-c2ccnc4[nH]ncc24)CCC(F)(COC(F)(F)F)C3)nc1 (single isomer, unassigned) [Example 317, (*R)-4-[6-Fluoro-2-(5-fluoro-2-pyridyl)-6-(trifluoromethoxymethyl)-5,7-dihydro-4H-pyrazolo[1,5-a]pyridin-3-yl]-1H-pyrazolo[3,4-b]pyridine] | 8520 | 111 |
| Fc1ccc(-c2nn3c(c2-c2ccnc4[nH]ncc24)CCC2(C3)CC2(F)F)nc1 (single isomer, unassigned) [Example 327, (*S)-2,2-Difluoro-2′-(5-fluoropyridin-2-yl)-3′-(1H-pyrazolo[3,4-b]pyridin-4-yl)-4′,5′-dihydro-7′H-spiro[cyclopropane-1,6′-pyrazolo[1,5-a]pyridine]] | 97 | 14 |
| C[C@]1(C(F)(F)F)Cn2nc(-c3ccc(F)cn3)c(-c3ccn4nccc4c3)c2CO1 (single isomer, unassigned) [Example 414, (*R)-2-(5-Fluoropyridin-2-yl)-6-methyl-3-(pyrazolo[1,5-a]pyridin-5-yl)-6-(trifluoromethyl)-6,7-dihydro-4H-pyrazolo[5,1-c][1,4]oxazine] | 330 | 8 |
| Cc1cc(-c2c(-c3cscn3)nn3c2CCCC3)c2cn[nH]c2n1 [Example 32, 4-(3-(6-Methyl-1H-pyrazolo[3,4-b]pyridin-4-yl)-4,5,6,7-tetrahydropyrazolo[1,5-a]pyridin-2-yl)thiazole] | 3020 | 60 |
| [2H]C([2H])([2H])C1(C([2H])([2H])[2H])Cn2nc(-c3ccc(F)cn3)c(-c3c(Cl)c(C)nc4[nH]ncc34)c2CO1 [Example 407, 3-(5-Chloro-6-methyl-1H-pyrazolo[3,4-b]pyridin-4-yl)-2-(5-fluoropyridin-2-yl)-6,6-bis(methyl-d3)-6,7-dihydro-4H-pyrazolo[5,1-c][1,4]oxazine] | 219 | 25 |
| Cc1n[nH]c2nccc(-c3c(-c4ccc(F)cn4)nn4c3COC(C)(C)C4)c12 [Example 160, 2-(5-Fluoropyridin-2-yl)-6,6-dimethyl-3-(3-methyl-1H-pyrazolo[3,4-b]pyridin-4-yl)-6,7-dihydro-4H-pyrazolo[5,1-c][1,4]oxazine] | 143 | 9 |

The next compounds have a lower IC50 (human CSNK1D) than those just listed; values first:

| IC50 (human CSNK1D) [nM] | IC50 [1] [nM] | Structure (SMILES) |
| --- | --- | --- |
| 8 | 1 | Cc1cc(-c2c(-c3ccc(F)cn3)nn3c2CC(C)(C)C3)c2cc[nH]c2n1 [Example 235, 4-[2-(5-Fluoro-2-pyridyl)-5,5-dimethyl-4,6-dihydropyrrolo[1,2-b]pyrazol-3-yl]-6-methyl-1H-pyrrolo[2,3-b]pyridine] |
| 11 | 2 | [2H]C([2H])([2H])C1(C([2H])([2H])[2H])Cn2nc(-c3ccc(F)cn3)c(-c3c(F)cnc4[nH]ccc34)c2CO1 [Example 397, 3-(5-Fluoro-1H-pyrrolo[2,3-b]pyridin-4-yl)-2-(5-fluoropyridin-2-yl)-6,6-bis(methyl-d3)-6,7-dihydro-4H-pyrazolo[5,1-c][1,4]oxazine] |
| 5 | < 0.5 | CC1COc2c(-c3ccnc4[nH]ncc34)c(-c3ccc(F)cc3)nn2C1 (stereo not shown) [Example 191, (R S)-2-(4-Fluorophenyl)-6-methyl-3-(1H-pyrazolo[3,4-b]pyridin-4-yl)-6,7-dihydro-5H-pyrazolo[5,1-b][1,3]oxazine] |
| 19 | 2 | Cc1cc(-c2c(-c3ccc(F)cn3)nn3c2C[C@@H]2C[C@@H]23)c2cn[nH]c2n1 [Example 28, (4aS,5aS)-2-(5-Fluoropyridin-2-yl)-3-(6-methyl-1H-pyrazolo[3,4-b]pyridin-4-yl)-4,4a,5,5a-tetrahydrocyclopropa[4,5]pyrrolo[1,2-b]pyrazole] |
| 15 | 3 | Cc1cc(-c2c(-c3ccc(F)cn3)nn3c2CO[C@](C)(C(F)(F)F)C3)c2cn[nH]c2n1 (single isomer, unassigned) [Example 179, (*S)-2-(5-Fluoropyridin-2-yl)-6-methyl-3-(6-methyl-1H-pyrazolo[3,4-b]pyridin-4-yl)-6-(trifluoromethyl)-6,7-dihydro-4H-pyrazolo[5,1-c][1,4]oxazine] |
| 43 | 7 | Fc1ccc(-c2nn3c(c2-c2ccnc4[nH]ccc24)COCC3)cc1 [Example 69, 2-(4-Fluorophenyl)-3-(1H-pyrrolo[2,3-b]pyridin-4-yl)-6,7-dihydro-4H-pyrazolo[5,1-c][1,4]oxazine] |
| 2 | 1 | CC(=O)Nc1cc(-c2c(-c3ccc(F)cc3)nn3c2C[C@H](F)C3)ccn1 [Example 229, N-[4-[(5S)-5-Fluoro-2-(4-fluorophenyl)-5,6-dihydro-4H-pyrrolo[1,2-b]pyrazol-3-yl]-2-pyridyl]acetamide] |
| 44 | 4 | Cc1nc2[nH]ncc2c(-c2c(-c3ccc(F)cn3)nn3c2CC[C@@H]2C[C@@H]23)c1F (single isomer, unassigned) [Example 344, (5a*R,6a*S)-3-(5-Fluoro-6-methyl-1H-pyrazolo[3,4-b]pyridin-4-yl)-2-(5-fluoropyridin-2-yl)-5,5a,6,6a-tetrahydro-4H-cyclopropa[e]pyrazolo[1,5-a]pyridine] |
| 20 | 4 | Fc1ccc(-c2nn3c(c2-c2ccnc4[nH]ccc24)CCCC3)cc1 [Example 33, 4-[2-(4-Fluorophenyl)-4,5,6,7-tetrahydropyrazolo[1,5-a]pyridin-3-yl]-1H-pyrrolo[2,3-b]pyridine] |
| 3 | 1 | Fc1ccc(-c2nn3c(c2-c2c(F)cnc4[nH]ncc24)C[C@H](F)C3)cc1 [Example 227, 5-Fluoro-4-[(5S)-5-fluoro-2-(4-fluorophenyl)-5,6-dihydro-4H-pyrrolo[1,2-b]pyrazol-3-yl]-1H-pyrazolo[3,4-b]pyridine] |
| 74 | 4 | Cc1nc(-c2c(-c3ccc(F)cc3)nn3c2COC(C(F)(F)F)C3)c2cn[nH]c2n1 (single isomer, unassigned) [Example 376, (*R)-2-(4-Fluorophenyl)-3-(6-methyl-1H-pyrazolo[3,4-d]pyrimidin-4-yl)-6-(trifluoromethyl)-6,7-dihydro-4H-pyrazolo[5,1-c][1,4]oxazine] |
